Test results taken from the supplement of paper PMC10307832.

What was measured:
Assay in all cases: relative viability (nuclei count vs DMSO), 5 days (fraction); higher = more cells survive
201T = test system: 201T
How it was run: (§1)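 Relative viability is defined as nuclei in treated wells over nuclei in vehicle wells. Duplicate plates were run and medians reported. Lung cancer cell lines in 1536-well plates were dosed by pin tool one day after seeding, with one drug or with a fixed anchor-drug dose plus five library-drug doses (not always all listed) in √10 steps, and nuclei were counted after 5 days.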

BEN = test system: BEN
How it was run: as §1

CAL-12T = test system: CAL-12T
How it was run: as §1

HCC-78 = test system: HCC-78
How it was run: as §1

HOP-62 = test system: HOP-62
How it was run: as §1

LCLC-97TM1 = test system: LCLC-97TM1
How it was run: as §1

LOU-NH91 = test system: LOU-NH91
How it was run: as §1

NCI-H1355 = test system: NCI-H1355
How it was run: as §1

NCI-H1395 = test system: NCI-H1395
How it was run: as §1

NCI-H1651 = test system: NCI-H1651
How it was run: as §1

NCI-H1793 = test system: NCI-H1793
How it was run: as §1

NCI-H1915 = details: first compound 0.001 µM
How it was run: as §1

Cc1cn(-c2cc(NC(=O)c3ccc(C)c(Nc4nccc(-c5cccnc5)n4)c3)cc(C(F)(F)F)c2)cn1 [Nilotinib] + Cc1cc(Nc2cc(N3CCN(C)CC3)nc(Sc3ccc(NC(=O)C4CC4)cc3)n2)n[nH]1 [Tozasertib] (partner 0.1 µM)
relative viability (201T; first compound 0.003162 µM): 1.18 | relative viability (201T; first compound 0.01 µM): 0.976 | relative viability (201T; first compound 0.03162 µM): 0.691 | relative viability (201T; first compound 0.1 µM): 0.634 | relative viability (BEN; first compound 0.001 µM): 0.498 | relative viability (BEN; first compound 0.003162 µM): 0.494 | relative viability (BEN; first compound 0.01 µM): 0.456 | relative viability (BEN; first compound 0.03162 µM): 0.408 | relative viability (BEN; first compound 0.1 µM): 0.509 | relative viability (CAL-12T; first compound 0.001 µM): 0.197 | relative viability (CAL-12T; first compound 0.003162 µM): 0.217 | relative viability (CAL-12T; first compound 0.01 µM): 0.219 | relative viability (CAL-12T; first compound 0.03162 µM): 0.172 | relative viability (CAL-12T; first compound 0.1 µM): 0.211 | relative viability (HCC-78; first compound 0.001 µM): 0.408 | relative viability (HCC-78; first compound 0.003162 µM): 0.373 | relative viability (HCC-78; first compound 0.01 µM): 0.479 | relative viability (HCC-78; first compound 0.03162 µM): 0.331 | relative viability (HCC-78; first compound 0.1 µM): 0.28 | relative viability (HOP-62; first compound 0.001 µM): 0.288 | relative viability (HOP-62; first compound 0.01 µM): 0.289 | relative viability (LCLC-97TM1; first compound 0.001 µM): 0.236 | relative viability (LCLC-97TM1; first compound 0.003162 µM): 0.254 | relative viability (LCLC-97TM1; first compound 0.01 µM): 0.161 | relative viability (LCLC-97TM1; first compound 0.03162 µM): 0.182 | relative viability (LCLC-97TM1; first compound 0.1 µM): 0.217 | relative viability (LOU-NH91; first compound 0.001 µM): 0.696 | relative viability (LOU-NH91; first compound 0.003162 µM): 0.708 | relative viability (LOU-NH91; first compound 0.01 µM): 0.781 | relative viability (LOU-NH91; first compound 0.03162 µM): 0.62 | relative viability (LOU-NH91; first compound 0.1 µM): 0.726 | relative viability (NCI-H1355; first compound 0.001 µM): 0.512 | relative viability (NCI-H1355; first compound 0.003162 µM): 0.454 | relative viability (NCI-H1355; first compound 0.01 µM): 0.442 | relative viability (NCI-H1355; first compound 0.03162 µM): 0.343 | relative viability (NCI-H1355; first compound 0.1 µM): 0.316 | relative viability (NCI-H1395; first compound 0.001 µM): 0.691 | relative viability (NCI-H1395; first compound 0.003162 µM): 0.674 | relative viability (NCI-H1395; first compound 0.01 µM): 0.751 | relative viability (NCI-H1395; first compound 0.03162 µM): 0.612 | relative viability (NCI-H1395; first compound 0.1 µM): 0.736 | relative viability (NCI-H1651; first compound 0.001 µM): 0.458 | relative viability (NCI-H1651; first compound 0.003162 µM): 0.584 | relative viability (NCI-H1651; first compound 0.01 µM): 0.405 | relative viability (NCI-H1651; first compound 0.03162 µM): 0.249 | relative viability (NCI-H1651; first compound 0.1 µM): 0.275 | relative viability (NCI-H1793; first compound 0.001 µM): 0.248 | relative viability (NCI-H1793; first compound 0.003162 µM): 0.298 | relative viability (NCI-H1793; first compound 0.01 µM): 0.3 | relative viability (NCI-H1793; first compound 0.03162 µM): 0.306 | relative viability (NCI-H1793; first compound 0.1 µM): 0.296 | relative viability (NCI-H1915): 0.366
